Our source for the T/C values is PubChem BioAssay AID330 (DTP/NCI, 2004).

The assay deals with P388 leukemia ip, CD2F1 mice, survival T/C. Briefly: NCI In Vivo Anticancer Drug Screen. Data for tumor model P388 Leukemia (intraperitoneal) in CD2F1 (CDF1) mice. Particulars: endpoint: median survival time, higher = longer survival. An outline of the steps:
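Mice carrying the transplanted tumor received test compound or vehicle. Survival was recorded in each group, and the value is the treated-group measurement divided by that of the vehicle-treated control group.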

Setting [1] is: dose: 50.0 mg/kg/injection, schedule: Q01DX009 (ip), vehicle: Klucel (hydroxypropylcellulose) (HPC).
The mark [2] stands for this setting: dose: 100.0 mg/kg/injection, schedule: Q01DX009 (ip), vehicle: Klucel (hydroxypropylcellulose) (HPC).
[3] abbreviates: dose: 200.0 mg/kg/injection, schedule: Q01DX009 (ip), vehicle: Klucel (hydroxypropylcellulose) (HPC).
The mark [4] stands for this setting: dose: 25.0 mg/kg/injection, schedule: Q01DX009 (ip), vehicle: saline.
The mark [5] stands for this setting: dose: 50.0 mg/kg/injection, schedule: Q01DX009 (ip), vehicle: saline.
Setting [6] is: dose: 100.0 mg/kg/injection, schedule: Q01DX009 (ip), vehicle: saline.
The mark [7] stands for this setting: dose: 50.0 mg/kg/injection, schedule: Q01DX005 (ip), vehicle: saline with Tween-80.
Setting [8] is: dose: 100.0 mg/kg/injection, schedule: Q01DX005 (ip), vehicle: saline with Tween-80.
The mark [9] stands for this setting: dose: 200.0 mg/kg/injection, schedule: Q01DX005 (ip), vehicle: saline with Tween-80.
Where [10] appears, read: dose: 60.0 mg/kg/injection, schedule: Q01DX005 (ip), vehicle: saline with Tween-80.
[11] abbreviates: dose: 120.0 mg/kg/injection, schedule: Q01DX005 (ip), vehicle: saline with Tween-80.
Where [12] appears, read: dose: 240.0 mg/kg/injection, schedule: Q01DX005 (ip), vehicle: saline with Tween-80.

Several values for one entry are separate records, joined by “and”; a condition that tells them apart may be missing. Equal values may be shown once. Inconclusive results and toxic doses are left out.

As for `Cc1cc([N+](=O)[O-])c(S(N)(=O)=O)c([N+](=O)[O-])c1`, the T/C reads like this: (dose: 3.13 mg/kg/injection, schedule: Q01DX009 (ip), vehicle: water) 96 % of control; (dose: 6.25 mg/kg/injection, schedule: Q01DX009 (ip), vehicle: water) 96 % of control; (dose: 12.5 mg/kg/injection, schedule: Q01DX009 (ip), vehicle: water) 99 % of control; (dose: 25.0 mg/kg/injection, schedule: Q01DX009 (ip), vehicle: water) 97 % of control; (dose: 50.0 mg/kg/injection, schedule: Q01DX009 (ip), vehicle: water) 98 % of control.
Take `O=C(N/N=C\c1c(O)ccc2ccccc12)C1CC1`: the T/C is, setting by setting: (dose: 50.0 mg/kg/injection, schedule: Q01DX005 (ip), vehicle: Klucel (hydroxypropylcellulose) (HPC)) 103 % of control; (dose: 100.0 mg/kg/injection, schedule: Q01DX005 (ip), vehicle: Klucel (hydroxypropylcellulose) (HPC)) 97 % of control; (dose: 200.0 mg/kg/injection, schedule: Q01DX005 (ip), vehicle: Klucel (hydroxypropylcellulose) (HPC)) 101 % of control.
As for `CCN(CC)c1cccc(Nc2nc3ccccc3s2)c1`, the T/C is, setting by setting: (dose: 60.0 mg/kg/injection, schedule: Q01DX005 (ip), vehicle: Klucel (hydroxypropylcellulose) (HPC)) 97 % of control; (dose: 120.0 mg/kg/injection, schedule: Q01DX005 (ip), vehicle: Klucel (hydroxypropylcellulose) (HPC)) 88 % of control; (dose: 240.0 mg/kg/injection, schedule: Q01DX005 (ip), vehicle: Klucel (hydroxypropylcellulose) (HPC)) 93 % of control.
For `CCN(CC)CCCNC(c1ccc(OC)c(OC)c1)C(Cl)(Cl)Cl` (centres undefined), the T/C is, setting by setting: (dose: 60.0 mg/kg/injection, schedule: Q01DX005 (ip), vehicle: saline) 94 % of control; (dose: 120.0 mg/kg/injection, schedule: Q01DX005 (ip), vehicle: saline) 101 % of control.
With `O/N=C(/CN1CCOCC1)c1ccccc1`, the T/C reads like this: under setting [1], 105 % of control; under setting [2], 100 % of control; under setting [3], 102 % of control.
In the case of `COC(=O)Nc1cn2cc(C(=O)c3cccs3)ccc2n1`, the T/C was 113 % of control under setting [1] and 151 % of control under setting [3].
With `COc1ccc(C(CC(=O)c2ccccc2)[Se]c2ccccc2)cc1` (centres undefined), the T/C (dose: 25.0 mg/kg/injection, schedule: Q01DX009 (ip), vehicle: Klucel (hydroxypropylcellulose) (HPC)) was 105 % of control; the T/C under setting [1] was 106 % of control; the T/C under setting [2] was 105 % of control.
Take `C=C1C(=O)OC2C(OC(C)=O)C(C(=O)OC)CC(O)C/C(CO)=C\C(OC(=O)/C(C)=C/C)C12` (centres undefined): the T/C reads like this: (dose: 2.0 mg/kg/injection, schedule: Q01DX009 (ip), vehicle: Klucel (hydroxypropylcellulose) (HPC)) 115 % of control; (dose: 4.0 mg/kg/injection, schedule: Q01DX009 (ip), vehicle: Klucel (hydroxypropylcellulose) (HPC)) 108 % of control; (dose: 8.0 mg/kg/injection, schedule: Q01DX009 (ip), vehicle: Klucel (hydroxypropylcellulose) (HPC)) 110 % of control; (dose: 16.0 mg/kg/injection, schedule: Q01DX009 (ip), vehicle: Klucel (hydroxypropylcellulose) (HPC)) 100 % of control.
`CCC(=O)NC`: the T/C by setting is: under setting [4], 97 % of control; under setting [5], 97 % of control; under setting [6], 106 % of control; (dose: 200.0 mg/kg/injection, schedule: Q01DX009 (ip), vehicle: saline) 107 % of control.
In the case of `CC(C)CCC(NS(=O)(=O)c1cc(I)c(N)c(I)c1)C(=O)O` (centres undefined), the T/C under setting [7] is 99 % of control, the T/C under setting [8] is 96 % of control and the T/C under setting [9] was 103 % of control.
Turning to `Oc1cc2c(cc1C(Nc1ncccn1)c1ccc(F)cc1)OCO2` (centres undefined), the T/C is 99 % of control under setting [10], 91 % of control under setting [11] and 92 % of control under setting [12].
On to `COc1ccc(CCNC2=CNCC2)cc1OC`, for which the T/C is, setting by setting: (dose: 50.0 mg/kg/injection, schedule: Q01DX005 (ip), vehicle: saline) 101 % of control; (dose: 100.0 mg/kg/injection, schedule: Q01DX005 (ip), vehicle: saline) 98 % of control; (dose: 200.0 mg/kg/injection, schedule: Q01DX005 (ip), vehicle: saline) 95 % of control.
As to `O=C1CSC(=S)N1Cc1cccnc1`, the T/C reads like this: under setting [1], 100 % of control; under setting [2], 102 % of control; under setting [3], 106 % of control.
`O=[N+]([O-])c1cccc(N=Cc2ccc(N(CCCl)CCCl)cc2)c1`: the T/C is 106 % of control (dose: 50.0 mg/kg/injection, schedule: Q04DX003 (ip), vehicle: Klucel (hydroxypropylcellulose) (HPC)); 104 % of control (dose: 100.0 mg/kg/injection, schedule: Q04DX003 (ip), vehicle: Klucel (hydroxypropylcellulose) (HPC)); 100 % of control (dose: 200.0 mg/kg/injection, schedule: Q04DX003 (ip), vehicle: Klucel (hydroxypropylcellulose) (HPC)).
For `COC(=O)c1nnn(-c2cccc(C(F)(F)F)c2)c1C(=O)c1ccc(Cl)c(Cl)c1`, the T/C under setting [10] is 99 % of control, the T/C under setting [11] was 100 % of control and the T/C under setting [12] was 92 % of control.
Consider `COC1CC(OC2CCC3(C)C(CCC45CCC(C6=CC(=O)OC6)C(C)(CCC43)C5=O)C2)OC(C)C1O` (centres undefined), for which the T/C reads like this: (dose: 1.56 mg/kg/injection, schedule: Q01DX005 (ip), vehicle: Klucel (hydroxypropylcellulose) (HPC)) 90 % of control; (dose: 3.12 mg/kg/injection, schedule: Q01DX005 (ip), vehicle: Klucel (hydroxypropylcellulose) (HPC)) 97 % of control; (dose: 6.25 mg/kg/injection, schedule: Q01DX005 (ip), vehicle: Klucel (hydroxypropylcellulose) (HPC)) 100 % of control; (dose: 12.5 mg/kg/injection, schedule: Q01DX005 (ip), vehicle: Klucel (hydroxypropylcellulose) (HPC)) 88 % of control and 91 % of control.
Consider `COc1cc(C(=O)O)c2c(c1C)OC(=O)c1c(C)cc(O)c(C=O)c1O2`, for which the T/C is 119 % of control (dose: 6.25 mg/kg/injection, schedule: Q01DX009 (ip), vehicle: saline); 119 % of control (dose: 12.5 mg/kg/injection, schedule: Q01DX009 (ip), vehicle: saline); 100 % of control under setting [4]; 116 % of control (dose: 26.0 mg/kg/injection, schedule: Q04DX003 (ip), vehicle: saline); 112 % of control (dose: 40.0 mg/kg/injection, schedule: Q04DX003 (ip), vehicle: saline); 119 % of control (dose: 60.0 mg/kg/injection, schedule: Q04DX003 (ip), vehicle: saline).
With `Cc1cc2c(=O)[nH]c(N)nc2nc1C`, the T/C reads like this: under setting [7], 100 % of control; under setting [8], 96 % of control; under setting [9], 102 % of control.
`Cc1ccc(NC2=NCCS2)cc1Cl`: the T/C was 110 % of control under setting [1], 115 % of control under setting [2] and 89 % of control under setting [3].
Regarding `Oc1ccc(N=Nc2ccc3c4c(cccc24)-c2ccccc2-3)c2cccnc12`, the T/C is, setting by setting: under setting [1], 99 % of control; under setting [2], 102 % of control; under setting [3], 114 % of control.
For the compound `C=CCOc1ccccc1/C(CC)=N/N(C)C`, the T/C runs as follows: under setting [5], 111 % of control; under setting [6], 100 % of control.
Regarding `CC(=O)Nc1nc(C(C)(C)C)c([N+](=O)[O-])s1`, the T/C (dose: 50.0 mg/kg/injection, schedule: Q01DX009 (ip), vehicle: saline with Tween-80) was 95 % of control; the T/C (dose: 100.0 mg/kg/injection, schedule: Q01DX009 (ip), vehicle: saline with Tween-80) is 104 % of control; the T/C (dose: 200.0 mg/kg/injection, schedule: Q01DX009 (ip), vehicle: saline with Tween-80) was 95 % of control.
With `COC(=O)C[C@@]1(C(=O)OC)[C@@H](C(=O)OC)C(C(=O)OC)=NN1C`, the T/C is, setting by setting: (dose: 12.5 mg/kg/injection, schedule: Q04DX002 (ip), vehicle: Klucel (hydroxypropylcellulose) (HPC)) 100 % of control; (dose: 25.0 mg/kg/injection, schedule: Q04DX002 (ip), vehicle: Klucel (hydroxypropylcellulose) (HPC)) 98 % of control; (dose: 50.0 mg/kg/injection, schedule: Q04DX002 (ip), vehicle: Klucel (hydroxypropylcellulose) (HPC)) 100 % of control.
On to `Nc1nc2c(-c3ccc([N+](=O)[O-])cc3)nnn2c2cccc(Cl)c12`, for which the T/C is 98 % of control under setting [10], 99 % of control under setting [11] and 97 % of control under setting [12].
In the case of `O=C1c2ccccc2C(=O)N1CCC[P+](c1ccccc1)(c1ccccc1)c1ccccc1`, the T/C (dose: 1.56 mg/kg/injection, schedule: Q01DX009 (ip), vehicle: saline) was 122 % of control.
Turning to `CCOC1OCN(C(C)C)CC1(C)C` (centres undefined), where the note is “dose: 25.0 mg/kg/injection, schedule: Q01DX009 (ip), vehicle: saline with Tween-80”, the T/C is 98 % of control.
